Results taken from patent US20120128630A1, “1-(6 MEMBERS AZO-HETEROCYCLIC)-PYRROLIN-2-ONE COMPOUNDS AS INHIBITORS OF HEPATITIS C NS5B POLYMERASE, THE PHARAMACEUTICAL COMPOSITION THEREOF AND THEIR THERAPEUTIC USE” (priority 2009, published 2012).

The compounds below were run against T1, HCV NS5B genotype 1b (Hepatitis C virus genotype 1b, UniProt Q9WMX2) (assay: 3D-SCREEN assay (NS5B 3D-Screen platform, luciferase reporter gene)). Conditions: EC50_3DS_NS5B, Table 1, 3D-SCREEN assay results; Huh-7 cells, 24 hours with compound, firefly luciferase reporter.
T1 construct: The protein was expressed with a 21 amino acid C-terminal deletion to remove transmembrane domain; expressed in transfected cells; host or cells: Huh-7
Type: cell-based
Text: cDNA encoding HCV NS5B genotype 1b, was cloned in frame with Gal4-DNA Binding Domain. The protein was expressed with a 21 amino acid C-terminal deletion to remove transmembrane domain. Expression of NS5BΔ21/Gal4 DBD fusion protein was under control of SV40 early promoter. 3D-Sensor peptide was cloned in frame with VP16 activation domain. Expression of 3D-Sensor/VP16 AD fusion protein was under control of CMV promoter. Expression of the firefly luciferase reporter gene was inducible by the [Target protein/conformation sensitive peptide/VP16AD] complex.
It is a single-target, cell based assay. Briefly, expression of a reporter gene depends on the interaction of a short peptide, thereafter named 3D-Sensor, and native conformation of the target protein. Whenever the conformation of the target protein is modified, interaction between 3D-sensor and target protein is disrupted and reporter gene is not expressed anymore. Conformation modifiers are identified by loss of expression of reporter gene. NS5B 3D-Screen platform was generated in Huh-7 cell lines by transient transfection of three expression vectors encoding respectively
(i) HCV NS5BΔ21/Gal4-DBD fusion protein
(ii) the 3D-sensor peptide I4/VP16 fusion protein
(iii) the firefly luciferase reporter gene
Huh-7 cells were dissociated the day before transfection and seeded in T175 flasks at a density of 10^7 cells in 30 ml culture medium. Equimolar ratios of vectors were transfected in cell according to optimized jetPEI transfection protocol (PolyPlus Transfection, Illkirch, France) and 10 μg total DNA/10^6 cells. Transfection was performed for 2 hours at 37° C. and 5% CO2 in a humidified atmosphere. After two hours cells were dissociated and seeded in 96 wells plates at a density of 25,000 cells per well and 90 μl culture medium. 10 μl of compounds to be tested were added 2 hours after seeding. Final concentration of DMSO was 1%. Cells were incubated in the presence of compounds for 24 hours after which expression of firefly luciferase reporter gene was quantified. Briefly, culture medium was removed and cells were lysed by addition of 100 μl of lysis buffer containing 125 mM Tris Phosphate ph 7.8, 10 mM EDTA, 5 mM DTT, 50% glycerol and 5% Triton. Plates were vortexed 10 min at 1300 rpm. Cell lysat was transferred in OpaqueWhite Assay 96 well Flat Bottom plates. 100 μl of luciferin solution 1× were added to each well. Luciferin solution contained 40 mM Tris Phosphate ph 7.8, 0.2 mM EDTA, 67 mM DTT, 2.14 mM MgCl2, 5.4 mM MgSO4, 4.7×10^−4 M luciferin, 5.3×10^−4 M ATP and 2.7×10^−4 M Acetyl co enzyme A. Luminescence was immediately measured with Berthold Microlumat Plus LB 96V luminometer with an integration of 0.5 sec. Inhibition was calculated using the formula: % inhibition=(1−(read/average max))*100. Average max=signal in absence of compound

Question: `COc1ccc(C(=O)C2=C(O)C(=O)N(c3ccc(C)nn3)C2c2ccc(C(C)(C)C)cc2)cc1` (centres unmarked) [Example 10, 5-(4-tert-butyl-phenyl)-3-hydroxy-4-(4-methoxy-benzoyl)-1-(6-methyl-pyridazin-3-yl)-1,5-dihydro-pyrrol-2-one] was tested. Which EC50 did it give?
Answer: Its EC50 is 3 µM.

Question: `Cc1ccc(C(=O)C2=C(O)C(=O)N(c3ccc(C#N)cn3)C2c2ccc(C(C)C)cc2)cc1` (centres unmarked) [Example 7, 6-[3-hydroxy-5-(4-isopropyl-phenyl)-4-(4-methyl-benzoyl)-2-oxo-2,5-dihydro-pyrrol-1-yl]-nicotinonitrile] was tested. Which EC50 did it give?
Answer: Its EC50 is 9 µM.

Question: `Cc1ccc(C(=O)C2=C(O)C(=O)N(c3ccc(C)nn3)C2c2ccc(-c3ccccc3)cc2)cc1` (centres unmarked) [Example 42, 5-biphenyl-4-yl-3-hydroxy-4-(4-methyl-benzoyl)-1-(6-methyl-pyridazin-3-yl)-1,5-dihydro-pyrrol-2-one] was tested. Which EC50 did it give?
Answer: The EC50 was 4 µM.

Question: How did the EC50 turn out when `Cc1ccc(N2C(=O)C(O)=C(C(=O)c3ccc(N(C)C)cc3)C2c2ccc(OC(F)(F)F)cc2)nn1` (centres unmarked) [Example 49, 4-(4-dimethylamino-benzoyl)-3-hydroxy-1-(6-methyl-pyridazin-3-yl)-5-(4-trifluoromethoxy-phenyl)-1,5-dihydro-pyrrol-2-one] was run?
Answer: Its EC50 is 1 µM.

Question: Which EC50 does the source give for `Cc1ccc(N2C(=O)C(O)=C(C(=O)c3ccc(C(C)C)cc3)C2c2ccc(-c3ccccc3)cc2)nn1` (centres unmarked) [Example 45, 5-biphenyl-4-yl-3-hydroxy-4-(4-isopropyl-benzoyl)-1-(6-methyl-pyridazin-3-yl)-1,5-dihydro-pyrrol-2-one] here?
Answer: Its EC50 is 4 µM.

Question: How did the EC50 turn out when `Cc1ccc(N2C(=O)C(O)=C(C(=O)c3ccc(N(C)C)cc3)C2c2ccc(C(C)C)cc2)nn1` (centres unmarked) [Example 35, 4-(4-dimethylamino-benzoyl)-3-hydroxy-5-(4-isopropyl-phenyl)-1-(6-methyl-pyridazin-3-yl)-1,5-dihydro-pyrrol-2-one] was run?
Answer: The EC50 was 3 µM.

Question: For `CON=C(C1=C(O)C(=O)N(c2ccc(C)nn2)C1c1ccc(C(C)C)cc1)c1ccc(C)cc1` (mixture of isomers) [Example 53, 3-hydroxy-5-(4-isopropyl-phenyl)-4-(methoxyimino-p-tolyl-methyl)-1-(6-methyl-pyridazin-3-yl)-1,5-dihydro-pyrrol-2-one], which EC50 is on record?
Answer: Its EC50 is 5 µM.

Question: With `Cc1ccc(C(=O)C2=C(O)C(=O)N(c3ccc(C)nn3)C2c2cccc(C(C)C)c2)cc1` (centres unmarked) [Example 29, 3-hydroxy-5-(3-isopropyl-phenyl)-4-(4-methyl-benzoyl)-1-(6-methyl-pyridazin-3-yl)-1,5-dihydro-pyrrol-2-one] as the compound, how does the EC50 read?
Answer: Its EC50 is 6 µM.

Question: For `Cc1ccc(C(=O)C2=C(O)C(=O)N(c3cccnn3)C2c2ccc(C(C)C)cc2)cc1` (centres unmarked) [Example 9, 3-hydroxy-5-(4-isopropyl-phenyl)-4-(4-methyl-benzoyl)-1-pyridazin-3-yl-1,5-dihydro-pyrrol-2-one], which EC50 is on record?
Answer: Its EC50 is 7 µM.

Same assay, conditions: EC50_3DS_NS5B, Table 2, titled Replicon assay results

Question: `Cc1ccc(N2C(=O)C(O)=C(C(=O)c3ccc(C#N)cc3)C2c2ccc(OC(F)(F)F)cc2)nn1` (centres unmarked) [Example 176, 4-[4-hydroxy-1-(6-methyl-pyridazin-3-yl)-5-oxo-2-(4-trifluoromethoxy-phenyl)-2,5-dihydro-1H-pyrrole-3-carbonyl]-benzonitrile] was tested. Which EC50 did it give?
Answer: Its EC50 is < 10 µM.

Question: `Cc1ccc(N2C(=O)C(O)=C(C(=O)c3ccc(N4CCCC4)cc3)C2c2ccc(OC(F)(F)F)cc2)nn1` (centres unmarked) [Example 184, 3-hydroxy-1-(6-methyl-pyridazin-3-yl)-4-(4-pyrrolidin-1-yl-benzoyl)-5-(4-trifluoromethoxy-phenyl)-1,5-dihydro-pyrrol-2-one] was tested. Which EC50 did it give?
Answer: The EC50 was < 10 µM.

Question: How did the EC50 turn out when `Cc1ccc(N2C(=O)C(O)=C(C(=O)c3ccc(C(C)C)cc3)C2c2ccc(SC(C)C)cc2)nn1` (centres unmarked) [Example 173, 3-hydroxy-4-(4-isopropyl-benzoyl)-5-(4-isopropylsulfanyl-phenyl)-1-(6-methyl-pyridazin-3-yl)-1,5-dihydro-pyrrol-2-one] was run?
Answer: Its EC50 is < 1 µM.

Question: How did the EC50 turn out when `Cc1ccc(N2C(=O)C(O)=C(C(=O)c3ccc(C(C)C)cc3)C2c2ccc(CC(C)C)cc2)nn1` (centres unmarked) [Example 136, 3-hydroxy-5-(4-isobutyl-phenyl)-4-(4-isopropyl-benzoyl)-1-(6-methyl-pyridazin-3-yl)-1,5-dihydro-pyrrol-2-one] was run?
Answer: Its EC50 is < 10 µM.

Question: Which EC50 does the source give for `Cc1ccc(N2C(=O)C(O)=C(C(=O)c3ccc(C(C)C)cc3)C2c2ccc(Oc3cc(C)on3)cc2)nn1` (centres unmarked) [Example 185, 3-hydroxy-4-(4-isopropyl-benzoyl)-5-[4-(5-methyl-isoxazol-3-yloxy)-phenyl]-1-(6-methyl-pyridazin-3-yl)-1,5-dihydro-pyrrol-2-one] here?
Answer: The EC50 was < 10 µM.

Question: For `Cc1ccc(N2C(=O)C(OC(=O)C(C)C)=C(C(=O)c3ccc(C(C)C)cc3)C2c2ccc(OC(F)(F)F)cc2)nn1` (centres unmarked) [Example 186, Isobutyric acid 4-(4-isopropyl-benzoyl)-1-(6-methyl-pyridazin-3-yl)-2-oxo-5-(4-trifluoromethoxy-phenyl)-2,5-dihydro-1H-pyrrol-3-yl ester], which EC50 is on record?
Answer: Its EC50 is < 1 µM.

Question: `Cc1ccc(N2C(=O)C(O)=C(C(=O)c3ccc(C(C)C)cc3)[C@@H]2c2ccc(C(C)(F)F)cc2)nn1` [Example 197, 5(S)-[4-(1,1-difluoro-ethyl)-phenyl]-3-hydroxy-4-(4-isopropyl-benzoyl)-1-(6-methyl-pyridazin-3-yl)-1,5-dihydro-pyrrol-2-one] was tested. Which EC50 did it give?
Answer: The EC50 was < 10 µM.

Question: Which EC50 does the source give for `Cc1ccc(N2C(=O)C(O)=C(C(=O)c3ccc(C(C)C)cc3)[C@@H]2c2ccc(C(F)(F)F)nc2)nn1` [Example 194, 3-hydroxy-4-(4-isopropyl-benzoyl)-1-(6-methyl-pyridazin-3-yl)-5(S)-(6-trifluoromethyl-pyridin-3-yl)-1,5-dihydro-pyrrol-2-one] here?
Answer: The EC50 was < 10 µM.

Question: With `Cc1ccc(N2C(=O)C(O)=C(C(=O)c3ccc(C(C)C)cc3)C2c2ccc(C(C)(F)F)nc2)nn1` (centres unmarked) [Example 187, 5-[6-(1,1-difluoro-ethyl)-pyridin-3-yl]-3-hydroxy-4-(4-isopropyl-benzoyl)-1-(6-methyl-pyridazin-3-yl)-1,5-dihydro-pyrrol-2-one] as the compound, how does the EC50 read?
Answer: Its EC50 is < 1 µM.

Question: With `Cc1ccc(N2C(=O)C(O)=C(C(=O)c3ccc(C(F)(F)F)cc3)C2c2ccc(C(F)(F)F)cc2)nn1` (centres unmarked) [Example 95, 3-hydroxy-1-(6-methyl-pyridazin-3-yl)-4-(4-trifluoromethyl-benzoyl)-5-(4-trifluoromethyl-phenyl)-1,5-dihydro-pyrrol-2-one] as the compound, how does the EC50 read?
Answer: Its EC50 is < 10 µM.

Question: How did the EC50 turn out when `Cc1ccc(N2C(=O)C(O)=C(C(=O)c3ccc(OC(C)C)cc3)C2c2ccc(OC(C)C)cc2)nn1` (centres unmarked) [Example 109, 3-hydroxy-4-(4-isopropoxy-benzoyl)-5-(4-isopropoxy-phenyl)-1-(6-methyl-pyridazin-3-yl)-1,5-dihydro-pyrrol-2-one] was run?
Answer: Its EC50 is < 10 µM.

Question: For `Cc1ccc(N2C(=O)C(O)=C(C(=O)c3ccc(N4CCCC4)cc3)C2c2ccc(OC(C)(F)F)cc2)nn1` (centres unmarked) [Example 183, 5-[4-(1,1-difluoro-ethoxy)-phenyl]-3-hydroxy-1-(6-methyl-pyridazin-3-yl)-4-(4-pyrrolidin-1-yl-benzoyl)-1,5-dihydro-pyrrol-2-one], which EC50 is on record?
Answer: The EC50 was < 10 µM.

Same assay, conditions: Table 2, titled Replicon assay results; read-out: EC50_3DS_NS5B

Question: Which EC50 does the source give for “5-[4-(1,1-difluoro-ethoxy)-phenyl]-3-hydroxy-4-(4-isopropyl-benzoyl)-1-(6-methyl-pyridazin-3-yl)-1,5-dihydro-pyrrol-2-one [Example 174]” here?
Answer: Its EC50 is < 10 µM.

Same assay, conditions: read-out: EC50_3DS_NS5B; Table 2, titled Replicon assay results

Question: `Cc1ccc(N2C(=O)C(O)=C(C(=O)c3ccc(OC(F)(F)F)cc3)C2c2ccc(C(C)C)cc2)cn1` (centres unmarked) [Example 97, 5-[3-hydroxy-5-(4-isopropyl-phenyl)-2-oxo-4-(4-trifluoromethoxy-benzoyl)-2,5-dihydro-pyrrol-1-yl]-2-methyl-pyridinium; chloride] was tested. Which EC50 did it give?
Answer: The EC50 was < 10 µM.
